Experimental data as given in patent US11542266B1, “Substituted piperidines as BTK inhibitors” (HAISCO PHARMACEUTICALS PTE. LTD., priority 2019, dated 2023).

Tests used:
[1] = molecular target: BTK protein (Mus musculus (Mouse), UniProt P35991); assay: Detection of BTK protein degradation in spleen of mice; format: in vivo; settings: po, 72 h, female ICR mice, 3 consecutive days of intragastric administration, read-out: DD50 value of compounds on BTK protein degradation in spleen of mice
Procedure: Female ICR mice, 6-8 weeks old, were purchased from BEIJING VITAL RIVER LABORATORY ANIMAL TECHNOLOGY CO., LTD, and the experiment was started after 3 days of adaptation. After 3 consecutive days of intragastric administration of different doses of the compound, the spleen of mice was taken, the spleen cells were collected, and RIPA lysis buffer (Beyotime, Cat. P0013B) was added. The cells were lysed on ice for 15 minutes, and centrifuged at 12000 rpm at 4° C. for 10 minutes. The protein sample of the supernatant was collected, and the protein was quantified by using the BCA kit (Beyotime, Cat. P0009), and then the protein was diluted to 0.25 mg/mL. The expressions of BTK (CST, Cat. 8547S) and the internal reference β-actin (CST, Cat. 3700S) were detected using a fully automated western blot quantitative analyzer (Proteinsimple). The expression level of BTK relative to the internal reference was calculated using Compass software, and the DD50 value was calculated using Origen9.2 software according to formula (4). Specifically, the BTKadministration denoted the expression level of BTK in administration groups at different doses, and the BTKvehicle denoted the expression level of BTK in the vehicle control group. BTK %=BTKadministration/BTKvehicle×100 formula (4)

[2] = test system: Mino cells; assay: Inhibition of cell proliferation, Mino cells (Cell Viability Assay, 72 h); format: cell-based, human; settings: Homo sapiens
Summary of the method: (§1)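 RPMI1640 + 10% FBS cultures seeded at 20000/well (SU-DHL-4) or 5000/well (Mino, SU-DHL-6), exposed to compound dilutions in triplicate for 72 h at 37 °C, 5% CO2, DMSO vehicle control. Viability read by luminescent reagent; IC50 from dose-response and Max inhi. % = (1 − T72 treated/T72 vehicle)×100 at top concentration.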

[3] = test system: OCI-LY10 cells; assay: Inhibition of cell proliferation, OCI-LY10 cells (Cell Viability Assay, 72 h); format: cell-based; settings: Homo sapiens
Procedure: (§2) OCI-LY10 and TMD-8 cells, in the culture medium of RPMI1640+10% FBS, were cultured in an incubator at 37° C. under 5% CO2. Cells were plated in a 96-well plate. Specifically, OCI-LY10 cells were at 10000/well, and TMD-8 cells were at 8000/well, with 90 μL/well. These cells were cultured at 37° C. under 5% CO2 overnight. On the next day, 10 μL of the compounds at different concentrations were added to each well. There were 3 replicate wells for each concentration, and the last column, added with DMSO, was used as a vehicle control group. The cultures were continued for 72 hours at 37° C. under 5% CO2. After 72 hours, 50 μL of detection reagent (Cell Viability Assay, Promega, G7573) was added to each well, and the cultures were uniformly mixed for 2 minutes, and incubated at room temperature for 10 minutes. The fluorescence signal value was measured with an Envision2104 plate reader (PerkinElmer). The inhibition rate was calculated using formula (2), wherein RLUcompound was the readout of the drug treated group, RLUcontrol was the average value of the vehicle control group, and RLUblank was the average value of the cell-free wells. The IC50 value was calculated using GraphPad Prism software. IR (%)=(1−(RLUcompound-RLUblank)/(RLUcontrol-RLUblank))*100% formula (2)

[4] = test system: TMD-8 cells; assay: Inhibition of cell proliferation, TMD-8 cells (Cell Viability Assay, 72 h); format: cell-based; settings: Homo sapiens, TMD8
Procedure: as §2

[5] = test system: SU-DHL-6 cells; assay: Inhibition of cell proliferation, SU-DHL-6 cells (Cell Viability Assay, 72 h); format: cell-based; settings: Homo sapiens
Procedure: SU-DHL-4, Mino, and SU-DHL-6 cells, in the culture medium of RPMI1640+10% FBS, were cultured in an incubator at 37° C. under 5% CO2. Cells were plated in a 96-well plate. Specifically, SU-DHL-4 cells were at 20000/well, Mino and SU-DHL-6 cells were at 5000/well, with 90 μL/well. 10 μL of the compounds at different concentrations were added to each well. There were 3 replicate wells for each concentration, and the last column, added with DMSO, was used as a vehicle control group. The cultures were continued for 72 hours at 37° C. under 5% CO2. After 72 hours, 100 μL of detection reagent (Cell Viability Assay, Promega, G7573) was added to each well, and the cultures were uniformly mixed for 2 minutes, and incubated at room temperature for 10 minutes. The fluorescence signal value was measured with a microplate reader (PHERAstar FSX). The IC50 value of the compound on cell proliferation inhibition was calculated using Origin 9.2 software, and the inhibition rate at the highest concentration of the compound (Max inhi. %) was calculated according to formula (1). Max inhi. %=(1-T72 administration/T72 vehicle)×100 Formula (1).

[6] = Pharmacokinetic experiment in rats (i.g. vehicle DMSO/Solutol/PEG-400/SBE-β-CD); format: in vivo; settings: Sprague-Dawley (SD), rat, plasma, po, male SD rats; for bioavailability: i.g. 20 mg/kg (DMSO/Solutol/PEG-400/SBE-β-CD) vs i.v. 5 mg/kg; for AUC(0-t): i.g. 20 mg/kg, vehicle 5% DMSO + 5% Solutol + 30% PEG-400 + 60% (20%SBE-β-CD)
Procedure: (§3) Objective: In this experiment, a single dose of each test compound was administered to SD rats intravenously and intragastrically, the concentrations of the test compound in plasma of rats were measured, and the pharmacokinetic characteristics and bioavailability of the test compound in rats were evaluated.
Experimental animals: Male SD rats, 200-250 g, 6-8 weeks old, 6 rats/compound. The experimental animals were purchased from CHENGDU DOSSY EXPERIMENTAL ANIMALS CO., LTD.
Experimental method: On the day of the experiment, 6 SD rats were randomly grouped according to their body weight. The animals were fasted with water available for 12 to 14 hours one day before the administration of a test compound, and were fed 4 hours after the administration.
Sampling: Before and after the administration, 0.1 mL of blood was taken from the orbit of the rats under isoflurane anesthesia, and placed in an EDTAK2 centrifuge tube. Centrifugation was carried out at 5000 rpm at 4° C. for 10 min and the plasma was collected.
Time points for plasma collection in G1 group: 0, 5 min, 15 min, 30 min, 1 h, 2 h, 4 h, 6 h, 8 h, and 24 h.
Time points for plasma collection in G2 group: 0, 15 min, 30 min, 1 h, 2 h, 4 h, 6 h, 8 h, and 24 h.
(§4) Before analysis and detection, all samples were stored at −80° C. The samples were analyzed quantitatively by LC-MS/MS.

[7] = test system: SU-DHL-4 cells; assay: Inhibition of cell proliferation, SU-DHL-4 cells (Cell Viability Assay, 72 h); format: cell-based, human; settings: Homo sapiens
Summary of the method: as §1

[8] = Pharmacokinetic experiment in rats (i.g. vehicle 0.5% MC); format: in vivo; settings: Sprague-Dawley (SD), rat, plasma, po, male SD rats
Summary of the method: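 Male SD rats (200–250 g, 6–8 weeks, n=6 per compound) were dosed once i.v. or intragastrically after a 12–14 h fast and fed 4 h post-dose. Orbital blood was drawn into EDTA-K2 tubes at 0–24 h (from 5 min i.v., from 15 min oral). Plasma was quantified by LC-MS/MS for PK parameters and bioavailability.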

[9] = Pharmacokinetic experiment in mice; format: in vivo; settings: mouse, plasma, male ICR mice
Procedure: as §3, with “ICR mice” for “SD rats”, “mice” for “rats”
Experimental animals: Male ICR mice, 20-25 g, 6-8 weeks old, 24 mice/compound. The experimental animals were purchased from CHENGDU DOSSY EXPERIMENTAL ANIMALS CO., LTD.
Experimental method: On the day of the experiment, 24 ICR mice were randomly grouped according to their body weight. The animals were fasted with water available for 12 to 14 hours one day before the administration of a test compound, and were fed 4 hours after the administration.
Sampling: Before and after the administration, 0.06 ml of blood was taken from the orbit of the mice under isoflurane anesthesia, and placed in an EDTAK2 centrifuge tube. Centrifugation was carried out at 5000 rpm at 4° C. for 10 min and the plasma was collected.
Time points for plasma collection in G1 group: 0, 5 min, 15 min, 30 min, 1 h, 2 h, 4 h, 6 h, 8 h, and 24 h;
Time points for plasma collection in G2 group: 0, 15 min, 30 min, 1 h, 2 h, 4 h, 6 h, 8 h, and 24 h;
as §4

BTK protein, sequence (P35991 whole entry): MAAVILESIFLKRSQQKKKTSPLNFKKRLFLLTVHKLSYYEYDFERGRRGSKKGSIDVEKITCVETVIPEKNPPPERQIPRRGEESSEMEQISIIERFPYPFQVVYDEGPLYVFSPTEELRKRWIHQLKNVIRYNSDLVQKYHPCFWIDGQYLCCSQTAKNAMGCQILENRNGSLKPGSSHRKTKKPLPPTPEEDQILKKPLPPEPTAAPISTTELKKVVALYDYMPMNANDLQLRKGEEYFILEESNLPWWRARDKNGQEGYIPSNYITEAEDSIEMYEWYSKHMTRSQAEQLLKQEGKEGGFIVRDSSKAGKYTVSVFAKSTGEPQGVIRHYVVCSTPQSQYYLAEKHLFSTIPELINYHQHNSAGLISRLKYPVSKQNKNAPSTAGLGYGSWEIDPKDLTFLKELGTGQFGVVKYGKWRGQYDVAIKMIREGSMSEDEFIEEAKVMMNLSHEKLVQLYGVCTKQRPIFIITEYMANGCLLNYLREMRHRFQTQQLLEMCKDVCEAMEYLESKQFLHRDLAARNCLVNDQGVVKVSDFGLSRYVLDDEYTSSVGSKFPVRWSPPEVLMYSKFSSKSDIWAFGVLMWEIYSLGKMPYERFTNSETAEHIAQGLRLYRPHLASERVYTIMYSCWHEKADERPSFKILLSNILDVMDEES

Structure (SMILES)	ED50 [1]	IC50 [2]	IC50 [3]	IC50 [4]	IC50 [5]	bioavailability [6]	AUC(0-t) [6]	IC50 [7]	bioavailability ([8]; i.g. 20 mg/kg (0.5% MC) vs i.v. 5 mg/kg)	AUC(0-t) ([8]; i.g. 20 mg/kg, vehicle 0.5% MC, read-out: AUC0-t)	bioavailability ([9]; oral, i.g. 10 mg/kg vs i.v. 5 mg/kg)	AUC(0-t) ([9]; po, i.g. 10 mg/kg, vehicle 0.5% MC)
Nc1ncnc2c1c(-c1ccc(Oc3ccccc3)cc1)nn2[C@@H]1CCN(C2CCN(C3CN(c4ccc5c(c4)C(=O)N(C4CCC(=O)NC4=O)C5=O)C3)CC2)C[C@H]1F (stereo partly drawn) [Compound 40, 5-(3-((3R,4R)-4-(4-amino-3-(4-phenoxyphenyl)-1H-pyrazolo[3,4-d]pyrimidin-1-yl)-3-fluoro-[1,4′-bipiperidin]-1′-yl)azetidin-1-yl)-2-(2,6-dioxopiperidin-3-yl)isoindoline-1,3-dione]	2.1 mg/kg	7.3 nM	3 nM	12 nM	54 nM	17.4 ± 4%	5420 ± 1260 ng·h/mL	74 nM	–	–	–	–
Nc1ncnc2c1c(-c1ccc(Oc3ccccc3)cc1)nn2C1CCN(C2CN(C3CN(c4ccc5c(c4)C(=O)N(C4CCC(=O)NC4=O)C5=O)C3)C2)CC1 (centres unmarked) [Compound 17, 5-[3-[3-[4-[4-amino-3-(4-phenoxyphenyl)pyrazolo[3,4-d]pyrimidin-1-yl]-1-piperidyl]azetidin-1-yl]azetidin-1-yl]-2-(2,6-dioxo-3-piperidyl)isoindoline-1,3-dione]	3.8 mg/kg	20 nM	5 nM	22 nM	744 nM	–	–	367 nM	6.57 ± 0.77%	2340 ± 274 ng·h/mL	10.8%	2430 ng·h/mL
Nc1ncnc2c1c(-c1ccc(Oc3ccccc3)cc1)nn2[C@H]1CCN(C2CCN(C3CN(c4ccc5c(c4)C(=O)N(C4CCC(=O)NC4=O)C5=O)C3)CC2)C[C@H]1F (stereo partly drawn) [Compound 42, 5-(3-((3R,4S)-4-(4-amino-3-(4-phenoxyphenyl)-1H-pyrazolo[3,4-d]pyrimidin-1-yl)-3-fluoro-[1,4′-bipiperidin]-1′-yl)azetidin-1-yl)-2-(2,6-dioxopiperidin-3-yl)isoindoline-1,3-dione]	1.9 mg/kg	15 nM	3 nM	16 nM	177 nM	9.14 ± 2.5%	1200 ± 327 ng·h/mL	382 nM	–	–	–	–
